The values below come from PubChem BioAssay AID489032 (Sanford-Burnham Center for Chemical Genomics, 2010).

SMILES strings stand for the structures. Calls of active or inactive are those of the source. The rule behind the calls is not given here. Where only a bound is given, the exact number is not on record here.

The test concerns UPR adaptive arm reporter cells, luciferase luminescence. Description: adaptive unfolded protein response reporter activation – cell-based, luciferase luminescence, dose response (AID 489032).
Consider `CCN(CC)S(=O)(=O)c1ccc2c(c1)C(=NO)c1cc(S(=O)(=O)N(CC)CC)ccc1-2`, for which the concentration for a half-maximal effect (EC50) – broadly, the midpoint of the concentration-response curve – is 18.6 µM.

For `O=C(NCCC1=CCCCC1)C(=O)NCC(c1ccco1)N1CCN(c2ccc(F)cc2)CC1` (stereo not drawn), the EC50 is > 80 µM (inactive).

On to `CC(C)N(C(=O)[C@H]1C[C@H](CC(=O)NCc2cccc(C(F)(F)F)c2)C(=O)N2CCc3c([nH]c4ccc(Cl)cc34)[C@]12C)C(C)C`, for which the EC50 was > 80 µM (inactive).

With `O=[N+]([O-])c1ccc(N/N=C/c2ccc(OCc3cccc4ccccc34)cc2)nc1`, the EC50 was > 80 µM (inactive).

As for `O=C(/C=C1\NC2(CCCC2)Cc2ccccc21)C(=O)N/N=C/c1ccc(O)c(O)c1`, the EC50 was 32 µM (inactive).

Regarding `Cc1ccc2nsnc2c1NC(=O)c1ccc(-c2cc(Cl)ccc2Cl)o1`, the EC50 was > 80 µM (inactive).

As to `Oc1cc(-c2cccnc2)cc2cccnc12`, the EC50 is > 80 µM (inactive).

Regarding `C[C@H]1[C@H](C)CC[C@]2(C(=O)O)CC[C@]3(C)C(=CC[C@@H]4[C@@]5(C)C[C@@H](O)[C@H](O)C(C)(C)[C@@H]5CC[C@]43C)[C@H]12`, the EC50 is > 80 µM (inactive).

With `Nc1nc(SCc2ccc(Cl)cc2Cl)nc2nc3c(cc12)CCCC3`, the EC50 is > 80 µM (inactive).

For the compound `Cc1ccc(S(=O)(=O)N(CC(=O)N/N=C/c2ccc(F)cc2)c2cccc3cccnc23)cc1`, the EC50 is > 80 µM (inactive).

Consider `O=C(COC(=O)/C=C/c1cn(-c2ccccc2)nc1-c1cccnc1)Nc1ccc(Cl)cc1Cl`, for which the EC50 is > 80 µM (inactive).

In the case of `Cc1ccc(CN2C(=O)C(=O)c3cc(C)ccc32)cc1`, the EC50 is 58.6 µM (inactive).

Consider `CCc1ccccc1NC(=O)C(CC)Sc1nc2cc3c(cc2c(=O)n1Cc1ccco1)OCO3` (stereo not drawn), for which the EC50 was 14.6 µM.

As for `CCCCCCCCCn1c2c(c(=N)c3c1CCC3)CCCC2`, the EC50 is 25.6 µM (inactive).

For the compound `CCOC(=O)c1sc(-c2ccccc2)cc1NC(=O)Nc1ccc([N+](=O)[O-])cc1`, the EC50 was 24.2 µM (inactive).

For `Cc1ccc(-c2nnc(-c3ccc(NC(=O)Cc4cccs4)cc3)o2)cc1`, the EC50 was > 80 µM (inactive).

Take `CCCCCn1c(N)c(-c2nc3ccccc3o2)c2c([N+](=O)[O-])nn(CC)c(=O)c21`: the EC50 was > 80 µM (inactive).

For the compound `CCOc1ccc(NC(=S)NC(=O)/C=C/c2ccc(C)cc2)c([N+](=O)[O-])c1`, the EC50 is > 80 µM (inactive).

On to `CCOC(=O)/C(=N\Nc1ccc(C(C)=O)cc1)c1csc(Nc2ccccc2)n1`, for which the EC50 is > 80 µM (inactive).

In the case of `CC(NCC(O)COCCC12CC3CC(CC(C3)C1)C2)c1ccccc1` (stereo not drawn), the EC50 is > 80 µM (inactive).

Turning to `C/C(Cl)=C\Cn1c(O)c(N=NC(N)=S)c2cc(Br)ccc21`, the EC50 was 4.06 µM.

As to `Cc1ccc(Cn2c(=O)n(-c3ccccc3)c(=O)c3ccc(C(=O)NCc4ccco4)cc32)cc1`, the EC50 was > 80 µM (inactive).

On to `COc1cc(/C=C(/C#N)c2nc3ccccc3[nH]2)ccc1OCC(=O)Nc1ccccc1C`, for which the EC50 is > 80 µM (inactive).

Regarding `CC(C)N(C(=O)[C@H]1C[C@H](CC(=O)NCC23CC4CC(CC(C4)C2)C3)C(=O)N2CCc3c([nH]c4ccc(Cl)cc34)[C@]12C)C(C)C`, the EC50 is > 80 µM (inactive).

With `Cc1ccc(-n2c(O)c(/C=N/c3ncc(Br)cc3Br)c(=O)[nH]c2=O)cc1`, the EC50 is 26.8 µM (inactive).

With `COc1ccccc1CCNC(=O)C1CCN(c2nnc(C)c3c(C)n(-c4ccc(C)cc4)nc23)CC1`, the EC50 is 17.8 µM.

Regarding `CCOc1cc(/C=N/N=C(\N)c2nonc2N)cc(Br)c1OCc1cccc2ccccc12`, the EC50 is > 80 µM (inactive).

In the case of `COc1cc(-c2ccc3oc(-c4ccsc4)cc3c2)cc(OC)c1OC`, the EC50 was > 80 µM (inactive).

With `CC1(C)C=Cc2c(c3c(c4c(=O)c(-c5ccc(O)cc5)coc24)OC(C)(C)CC3)O1`, the EC50 is > 80 µM (inactive).

As for `Cc1cc(C)cc(NC(=O)/C(C#N)=C/c2cn(CC(=O)NCc3ccco3)c3ccccc23)c1`, the EC50 was 9.17 µM.

Take `O=c1cc(CN2CCN(c3ccccc3)CC2)c2cc(O)c(-c3ccccc3)cc2o1`: the EC50 is 27.4 µM (inactive).

With `CCc1sc2nc(SCC(=O)Nc3cc(C)on3)n(-c3cccc(OC)c3)c(=O)c2c1C`, the EC50 was > 80 µM (inactive).

With `CCOc1ccc(NC(=O)C(Cc2ccccc2)N2C(=O)c3cccc4cccc(c34)C2=O)cc1` (stereo not drawn), the EC50 is > 80 µM (inactive).

For the compound `O=C(C[C@H]1C[C@H](C(=O)N2CCCCC2)[C@@]2(CCc3ccccc3)c3[nH]c4ccc(Cl)cc4c3CCN2C1=O)NCCC1=CCCCC1`, the EC50 was > 80 µM (inactive).

In the case of `Cc1ccc2c(c1)C(c1ccc([N+](=O)[O-])cc1)=NNC(c1ccc(Br)cc1)=N2`, the EC50 is > 80 µM (inactive).

With `Cc1ccc(NC(=O)COc2ccc(/C=C3/SC(=Nc4ccccc4)N(Cc4cccnc4)C3=O)cc2)cc1`, the EC50 is 34.4 µM (inactive).

Regarding `COc1ccc(C(=O)/C=C/c2ccc(O)cc2)c(O)c1C/C=C(\C)CCC=C(C)C`, the EC50 is > 80 µM (inactive).

In the case of `Cc1[nH]c2ccccc2c1/C=C/c1nc2ccccc2c(=O)n1-c1ccc([N+](=O)[O-])cc1`, the EC50 is > 80 µM (inactive).

Take `O=[N+]([O-])c1ccc(N/N=C/c2cccc(O)c2O)c(S(=O)(=O)N2CCOCC2)c1`: the EC50 was 21.2 µM (inactive).

In the case of `O=C(Cn1c2ccccc2c(=O)c2cc([N+](=O)[O-])ccc21)Nc1ccccc1Cl`, the EC50 was > 80 µM (inactive).

For `Cc1cnc(NC(=O)c2cc3c(C)nn(Cc4ccccc4Cl)c3s2)s1`, the EC50 is > 80 µM (inactive).

`O=C(Nc1nc2ccc(Cl)cc2s1)c1ccc(N2CCCCC2)c([N+](=O)[O-])c1`: the EC50 is > 80 µM (inactive).

In the case of `CC(C)c1ccc(C2C3=C(COC3=O)Nc3cc4c(cc32)OCO4)cc1` (stereo not drawn), the EC50 was 48.9 µM (inactive).

Turning to `COC(=O)Cc1csc(/N=C/c2c(O)n(-c3cccc(C(F)(F)F)c3)c(=O)c3ccccc23)n1`, the EC50 was > 80 µM (inactive).

`Cc1nc(Nc2nc(-c3ccccc3)cc(=O)[nH]2)nc2ccccc12`: the EC50 was 11.9 µM.

Consider `CC1=CC(C)[C@H](/C=N/n2c(=O)[nH]c3c([nH]c4ccc(C)cc43)c2=O)C(C)C1` (stereo partly drawn), for which the EC50 is > 80 µM (inactive).

Regarding `O=C(Nc1ccc([N+](=O)[O-])cc1)C(Cc1ccccc1)N1C(=O)c2cccc3cccc(c23)C1=O` (stereo not drawn), the EC50 was 27 µM (inactive).

In the case of `Cn1nnnc1Sc1ncnc2scc(-c3ccc(Cl)cc3)c12`, the EC50 is > 80 µM (inactive).

Regarding `Cc1c(C(=O)Nc2nccs2)oc2ccc(Br)cc12`, the EC50 is > 80 µM (inactive).

Turning to `CCOc1cc(/C=C(\C#N)c2[nH]nc(N)c2C#N)ccc1O`, the EC50 is > 80 µM (inactive).

`COc1cc(NC(=O)c2ccc(C)cc2C)ccc1NC(=O)c1cc2ccccc2o1`: the EC50 is > 80 µM (inactive).

As for `Cc1ccc(Cn2c(SCC(=O)Nc3cc(C)on3)nc3ccccc3c2=O)cc1`, the EC50 is > 80 µM (inactive).

On to `Cc1ccc(N2CCN(c3ccc(NCc4nc5ccccc5n4C)cc3)CC2)cc1`, for which the EC50 was > 80 µM (inactive).

On to `NC(=S)N/N=C/c1ccc(C23CC4CC(CC(C4)C2)C3)cc1`, for which the EC50 was 40 µM (inactive).

`Cc1cc(NC(=O)c2cc(-c3ccncc3)nc3ccccc23)ccc1Br`: the EC50 was 27.8 µM (inactive).

Turning to `c1ccc(Oc2c3ccccc3nc3ccccc23)cc1`, the EC50 is > 80 µM (inactive).

As for `N#Cc1ccc(-c2ccc(Cl)cc2)nc1SCC(=O)c1cccc(Cl)c1`, the EC50 is 11 µM.

As for `COc1ccc2cc1Oc1ccc(cc1)C[C@H]1c3c(cc(OC)c4c3Oc3c(ccc5c3[C@H](C2)N(C)CC5)O4)CCN1C`, the EC50 is > 80 µM (inactive).

For `COc1ccc(/C=N/Nc2cc(C)nc3ccc(Br)cc23)cc1`, the EC50 was > 80 µM (inactive).

Take `CCOC(=S)SCC(=O)Nc1nc(-c2ccc(Br)cc2)cs1`: the EC50 is > 80 µM (inactive).

With `CC1CCC(C(C)C)C(OC(=O)Cn2c(-c3ccc(Br)cc3)[n+](C)c3ccccc32)C1` (stereo not drawn), the EC50 is > 80 µM (inactive).

Turning to `O=C(C[n+]1ccc(-c2cc(C(=O)Nc3cccc(C(F)(F)F)c3)c3ccccc3n2)cc1)c1cccc([N+](=O)[O-])c1`, the EC50 was > 80 µM (inactive).

Regarding `CCCCCCCC(=O)Nc1ccc(C(=O)N/N=C/c2cccc([N+](=O)[O-])c2)cc1`, the EC50 is 18.3 µM.

As to `COc1cc(CNCCO)cc(Cl)c1OCc1ccc(Cl)cc1Cl`, the EC50 is > 80 µM (inactive).

Take `CCOc1ccc(-c2nnc(SCC(=O)Nc3ccc4c(c3)c3ccccc3n4CC)n2N)cc1`: the EC50 is > 80 µM (inactive).

For `COc1cc(OC)cc(C(=O)Nc2ccc3nc4n(c(=O)c3c2)CCCCC4)c1`, the EC50 is 31.9 µM (inactive).

Take `CCCCOc1ccccc1NC(=O)Cn1c(-c2nonc2N)nc2ccccc21`: the EC50 is 22 µM (inactive).

On to `O=C(C[C@H]1C/C=C\C[C@@H](NC(=O)OCC2c3ccccc3-c3ccccc32)C(=O)O[C@@H](c2ccccc2)CNC1=O)N[C@H](CO)Cc1ccccc1`, for which the half-maximal effective concentration (EC50) is 20 µM.

`O=C(/C=C/c1ccco1)NC(=S)Nc1ccc(O)c(-c2nc3ccccc3s2)c1`: the EC50 was 10.4 µM.

Consider `COc1cc(/C=C(\C#N)c2nc3ccccc3[nH]2)cc(Br)c1OCc1ccc(F)cc1`, for which the EC50 is > 80 µM (inactive).

Consider `Cc1ccc(C(=O)C(C(=O)/C=C/c2ccccc2)=C2SCCCS2)cc1`, for which the EC50 is > 80 µM (inactive).

As to `CC(C)=CCc1c2c(c3occ(-c4ccc(O)cc4)c(=O)c3c1O)C=CC(C)(C)O2`, the EC50 was > 80 µM (inactive).

Turning to `CC1=C(/C=C/C(C)=C/C=C/C(C)=C/C(=O)Nc2ccc(O)cc2)C(C)(C)CCC1`, the EC50 is > 80 µM (inactive).

On to `CCCNC(=O)/C(C#N)=C1\N=C(NC(=O)c2cccs2)c2ccccc21`, for which the EC50 was > 80 µM (inactive).

With `CCc1ccc(-c2nc(CN3CCC(C(=O)NCCN(CC)c4ccccc4)CC3)c(C)o2)cc1`, the EC50 was > 80 µM (inactive).

On to `Cc1ccc(-c2cc(C(F)F)n3ncc(C(=O)N4CCc5ccccc54)c3n2)cc1`, for which the EC50 is 27.2 µM (inactive).

Take `O=C(Nc1nc(-c2ccc(F)c(F)c2)cs1)Nc1ccc(F)cc1F`: the EC50 was 37.2 µM (inactive).

Take `Cc1cc(C)c2c(n1)sc1c(-c3ccccc3)c(C#N)c(N)nc12`: the EC50 was > 80 µM (inactive).
